Tests used:
LRP5/6 = assay: Immunostaining of phosphorylated PPPSP motif of LRP5/6 in rat trabecular bone; assay type: in vivo; settings: rats, single PTH injection
Protocol: To further examine whether LRP5/6 mediates PTH-elevated β-catenin levels in vivo, trabecular bone sections were immunostained with the antibody against phosphorylated PPPSP motif. Formalin-fixed tissue sections of 5 μm thickness were deparaffinized in xylene and rehydrated in graded alcohols. Antigen retrieval was achieved by incubating tissue sections in boiling 10 mmol/L citrate buffer (pH 6.0) for 5 minutes in a microwave oven. All sections were then incubated with hydrogen peroxide for 5 minutes. Subsequently, sections were incubated with the primary antibodies against β-catenin or LRP6 1490 for 1 hour at room temperature. After rinsing the primary antibody in T-PBS, antibody detection was accomplished using the Super Sensitive biotin-streptavidin horseradish peroxidase detection kit (Biogenex, San Ramon, Calif.). The diaminobenzidine tetrachloride Super Sensitive substrate kit (Biogenex, San Ramon, Calif.) was used to visualize the antibody-antigen complex. The sections were then counterstained with hematoxylin. Appropriate negative controls, consisting of tissue sections of each case processed without the addition of primary antibody, were prepared along with positive multitissue control sections. Only those cases with greater than 10% immunohistochemical stains were considered as positive. Assessment of the immunohistochemical staining was performed independently by two pathologists. Contrasting results were discussed until an agreement was reached.
The pattern of phosphorylated LRP5/6 was correlated with the changes of β-catenin levels induced by PTH in Rat osteoblasts.

MPK1, RANKL and OPG mRNA = assay: Real-Time PCR of PTH target genes in bone tissue of injected rats; assay type: in vivo, rat; settings: rats injected with PTH (PTH (1-34))
Text: Immunohistochemical staining of representative sections with antibody against β-catenin at 10× objective and 40× objective counterstained with hematoxylin from either primary spongliosa subjacent to the epiphyseal growth plates or Spongiosa subjacent to diaphyseal hematopoietic bone marrow of different time points after PTH single injection in rats. […] Each value is the mean±SEM of determinations in three independent slides of each animal and three animals of each group. Panels B and C show graphs of the expression of MPK1 mRNA and the ratio of RANKL/OPG as quantified by real-time PCR in cavaria tissue from the same animals. […] Panel D is a graph showing the numbers of β-catenin-positive osteoblasts as a percent of total osteoblasts per field that were determined. […]
It has been reported that intermittent PTH treatment targeted proliferating cells in the primary spongiosa of young rat distal femur metaphysis, resulting in an increased number of osteoblasts (Oniya, 1995, Bone). […] Quantitation of MPK1, RANKL, OPG, and GAPDH with specific primers was performed using a DNA Engine Opticon continuous fluorescence detection system (MJ Research, Logan, Utah) with SYBR Green I as the method of detection. […] Briefly, quantitative PCR was performed in a total reaction volume of 20 μl per […]. […]

TGFβRII = target: T1, TGFβRII (Homo sapiens, UniProt P37173+Q03431); assay: TGFβRII internalization in HEK293-PTH1R cells; assay type: cell-based; settings: stimulated with PTH for 30 minutes; 90% before stimulation
T1 construct: expressed in transfected cells; host or cells: HEK293-PTH1R (HEK293 stably expressing HA-PTH1R)
T1 sequence (P37173 23-567): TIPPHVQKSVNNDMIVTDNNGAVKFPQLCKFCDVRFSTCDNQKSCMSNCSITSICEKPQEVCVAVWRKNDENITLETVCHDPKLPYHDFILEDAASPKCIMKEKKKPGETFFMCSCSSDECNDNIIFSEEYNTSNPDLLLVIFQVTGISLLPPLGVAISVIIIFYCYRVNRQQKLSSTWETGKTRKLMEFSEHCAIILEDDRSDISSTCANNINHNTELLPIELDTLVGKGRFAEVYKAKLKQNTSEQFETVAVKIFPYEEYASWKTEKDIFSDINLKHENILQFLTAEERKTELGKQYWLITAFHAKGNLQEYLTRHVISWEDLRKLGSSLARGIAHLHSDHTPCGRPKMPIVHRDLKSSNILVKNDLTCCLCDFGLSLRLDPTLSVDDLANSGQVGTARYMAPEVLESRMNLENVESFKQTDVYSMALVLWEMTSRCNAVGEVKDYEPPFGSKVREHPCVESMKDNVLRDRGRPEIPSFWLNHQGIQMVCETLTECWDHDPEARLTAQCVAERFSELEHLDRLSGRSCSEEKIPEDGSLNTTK
T1 sequence (Q03431 27-593): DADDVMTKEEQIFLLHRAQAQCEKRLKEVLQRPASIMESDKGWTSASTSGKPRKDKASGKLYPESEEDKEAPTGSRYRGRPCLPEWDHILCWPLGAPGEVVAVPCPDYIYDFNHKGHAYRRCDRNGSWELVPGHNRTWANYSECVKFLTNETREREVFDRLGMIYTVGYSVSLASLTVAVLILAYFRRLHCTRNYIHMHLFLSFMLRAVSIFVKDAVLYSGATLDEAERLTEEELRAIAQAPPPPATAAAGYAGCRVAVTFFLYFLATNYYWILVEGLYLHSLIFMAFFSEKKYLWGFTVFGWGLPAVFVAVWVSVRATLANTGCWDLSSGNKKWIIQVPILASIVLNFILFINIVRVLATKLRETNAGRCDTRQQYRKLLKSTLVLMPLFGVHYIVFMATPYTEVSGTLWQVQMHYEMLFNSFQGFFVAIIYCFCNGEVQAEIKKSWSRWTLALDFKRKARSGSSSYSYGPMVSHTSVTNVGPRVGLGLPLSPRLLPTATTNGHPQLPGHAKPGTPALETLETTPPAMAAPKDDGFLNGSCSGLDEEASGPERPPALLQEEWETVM
Protocol: TGFβRII tagged with Flag epitope was expressed in HEK293 cells that were expressing PTH1R or not, and the transfected cells were treated with PTH or control.
In particular, TGFβ1 treatment increases the number of cell membrane PTH1R. Therefore, the potential functional relationship of PTH with TGFβRII was examined. TGFβRII tagged with Flag epitope was transiently expressed in embryonic kidney 293 (HEK293) cells or HEK293 cells stably expressing PTH1R with HA (HEK293-PTH1R). In the absence of PTH, TGFβRII was present predominantly at the cell surface, with a few puncta in the cytosol (data not shown). […] To visualize the effect of PTH to the TβRII, a red fluorescent PTH (1-34) was synthesized in which the TMR fluorophore was attached to the side chain of the lysine residue at position 13 in PTH (1-34) (PTH^TMR).
To quantitate these observations, the cells were fixed at various time points and classified as three types: (1) TGFβRII is dominantly present at the cell surface, (2) TGFβRII locates to both the cell surface and vesicles in the cytosol, and (3) TGFβRII mainly localizes to the cytosol as vesicles. Before stimulation with PTH, TGFβRII was present at the cell surface in 90% of the cells. […] From 10 to 30 minutes after stimulation with PTH (1-34), cell-surface TβRII levels were reduced, indicative of receptor clearance from the cell surface membrane (FIG. 10B). […]

LRP5/Axin binding = assay: Axin-LRP5 binding immunoprecipitation; assay type: cell-based; settings: significantly induced at 30 minutes; data not shown
Text: If the observation is true, then the phosphorylated PPPSP motif will serve as an Axin docking site.
GSK3β is involved in PTH-stimulated LRP6 phosphorylation at its PPPSP motifs. However, the phosphorylation of LRP5 by PTH was very strong and seems GSK3β-unrelated. Since LRP6N, the extracellular domain with transmembrane region, functions as dominant-negative, we examined whether it inhibits PTH-induced Axin binding with LRP5/6.

PTH: Parathyroid hormone ligand, form not stated at the place; figure legends give PTH (1-84) or PTH (1-34)
peak of LRP5/6 phosphorylation after PTH injection (LRP5/6): 8 h
start of LRP5/6 phosphorylation after PTH injection (LRP5/6): 2 h
LRP5/6 phosphorylation at 24 hours (LRP5/6; 24 hours): disappearing
phosphorylation of LRP5/6 in preosteoblasts/osteoblasts at the surface of trabecular bone (LRP5/6; data not shown): enhanced phosphorylation of LRP5/6
total LRP5/6 protein level in osteoblasts of rat tibia bone (LRP5/6; data not shown): remained unchanged
MPK1 mRNA expression (MPK1, RANKL and OPG mRNA): stimulated MPK1 mRNA expression
ratio of RANKL/OPG (MPK1, RANKL and OPG mRNA): increased
cells exhibiting cell-surface localization of TGFβRII (TGFβRII): less than 10%
binding of Axin to LRP5 (LRP5/Axin binding): induced binding of Axin to LRP5
